From PubChem BioAssay (NCI)
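Cells were grown in 96-well plates and exposed to each compound for 48 hours at five concentrations; endpoints were interpolated linearly between bracketing concentrations, or set to the highest concentration if not reached. GI50 marks 50% less growth. TGI marks complete inhibition of growth.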

Key:
Experiment in all cases: DTP human tumour cell line panel, 48 h
HL-60(TB) leukemia = test system: HL-60(TB) leukemia
BT-549 breast = test system: BT-549 breast
HS 578T breast = test system: HS 578T breast
CAKI-1 renal = test system: CAKI-1 renal
HCT-116 colon = test system: HCT-116 colon
U251 CNS = test system: U251 CNS
OVCAR-5 ovarian = test system: OVCAR-5 ovarian
ACHN renal = test system: ACHN renal
MDA-MB-435 = test system: MDA-MB-435
HT29 colon = test system: HT29 colon
SF-295 CNS = test system: SF-295 CNS
A498 renal = test system: A498 renal
A549 NSCLC = test system: A549 NSCLC
CCRF-CEM leukemia = test system: CCRF-CEM leukemia
OVCAR-3 ovarian = test system: OVCAR-3 ovarian
T-47D breast = test system: T-47D breast
KM12 colon = test system: KM12 colon
M14 melanoma = test system: M14 melanoma
DU-145 prostate = test system: DU-145 prostate
MDA-MB-231 breast = test system: MDA-MB-231 breast
SW-620 colon = test system: SW-620 colon
SK-MEL-2 melanoma = test system: SK-MEL-2 melanoma
786-0 renal = test system: 786-0 renal
HOP-62 NSCLC = test system: HOP-62 NSCLC
UACC-62 melanoma = test system: UACC-62 melanoma
SN12C renal = test system: SN12C renal
HCC-2998 colon = test system: HCC-2998 colon
UACC-257 melanoma = test system: UACC-257 melanoma
SNB-19 CNS = test system: SNB-19 CNS
SR leukemia = test system: SR leukemia
K-562 leukemia = test system: K-562 leukemia
NCI-H226 lung = test system: NCI-H226 lung
NCI-H522 lung = test system: NCI-H522 lung
COLO 205 colon = test system: COLO 205 colon
MCF7 breast = test system: MCF7 breast
SNB-75 CNS = test system: SNB-75 CNS
EKVX NSCLC = test system: EKVX NSCLC
NCI/ADR-RES ovarian = test system: NCI/ADR-RES ovarian
SK-MEL-5 melanoma = test system: SK-MEL-5 melanoma
TK-10 renal = test system: TK-10 renal
SK-MEL-28 melanoma = test system: SK-MEL-28 melanoma
SK-OV-3 ovarian = test system: SK-OV-3 ovarian
NCI-H23 lung = test system: NCI-H23 lung
MOLT-4 leukemia = test system: MOLT-4 leukemia
HCT-15 colon = test system: HCT-15 colon
LOX IMVI melanoma = test system: LOX IMVI melanoma
NCI-H460 lung = test system: NCI-H460 lung
SF-268 CNS = test system: SF-268 CNS
MALME-3M melanoma = test system: MALME-3M melanoma
UO-31 renal = test system: UO-31 renal
OVCAR-4 ovarian = test system: OVCAR-4 ovarian
SF-539 CNS = test system: SF-539 CNS
OVCAR-8 ovarian = test system: OVCAR-8 ovarian
RPMI-8226 leukemia = test system: RPMI-8226 leukemia
IGROV1 ovarian = test system: IGROV1 ovarian
HOP-92 NSCLC = test system: HOP-92 NSCLC
PC-3 prostate = test system: PC-3 prostate

## c1ccc(-c2cnc3nc4ccccc4nc3n2)cc1
HL-60(TB) leukemia
  TGI: > 100 µM
BT-549 breast
  TGI: 29 µM
HS 578T breast
  TGI: 33.3 µM
CAKI-1 renal
  TGI: 3.53 µM
HCT-116 colon
  TGI: 21.9 µM
U251 CNS
  TGI: 22.4 µM
OVCAR-5 ovarian
  TGI: 83.1 µM
ACHN renal
  TGI: 15.4 µM
MDA-MB-435
  TGI: 3.22 µM
HT29 colon
  TGI: 35.5 µM
SF-295 CNS
  TGI: 25.3 µM
A498 renal
  TGI: 27.1 µM
A549 NSCLC
  TGI: 23.6 µM
CCRF-CEM leukemia
  TGI: 10.2 µM
OVCAR-3 ovarian
  TGI: 5.63 µM
T-47D breast
  TGI: 47 µM
KM12 colon
  TGI: 21.8 µM
M14 melanoma
  TGI: 25.6 µM
DU-145 prostate
  TGI: 19.6 µM
MDA-MB-231 breast
  TGI: 17.4 µM
SW-620 colon
  TGI: 18 µM
SK-MEL-2 melanoma
  TGI: 15.1 µM
786-0 renal
  TGI: > 100 µM
HOP-62 NSCLC
  TGI: 65.3 µM
UACC-62 melanoma
  TGI: 15.4 µM
SN12C renal
  TGI: 31.5 µM
HCC-2998 colon
  TGI: 43.3 µM
UACC-257 melanoma
  TGI: 8.62 µM
SNB-19 CNS
  TGI: 32.7 µM
SR leukemia
  TGI: 4.81 µM
K-562 leukemia
  TGI: > 100 µM
NCI-H226 lung
  TGI: 19.7 µM
NCI-H522 lung
  TGI: 19 µM
COLO 205 colon
  TGI: 17.6 µM
MCF7 breast
  TGI: 4.71 µM
SNB-75 CNS
  TGI: 22.8 µM
EKVX NSCLC
  TGI: 16.5 µM
NCI/ADR-RES ovarian
  TGI: 39 µM
SK-MEL-5 melanoma
  TGI: 12.3 µM
TK-10 renal
  TGI: 20.8 µM
SK-MEL-28 melanoma
  TGI: 32.8 µM
SK-OV-3 ovarian
  TGI: 9.12 µM
NCI-H23 lung
  TGI: 22 µM
MOLT-4 leukemia
  TGI: 43.1 µM
HCT-15 colon
  TGI: > 100 µM
LOX IMVI melanoma
  TGI: 20.1 µM
NCI-H460 lung
  TGI: 13.3 µM
SF-268 CNS
  TGI: 17.8 µM
MALME-3M melanoma
  TGI: 15.8 µM
UO-31 renal
  TGI: 19.5 µM
OVCAR-4 ovarian
  TGI: 19.5 µM
SF-539 CNS
  TGI: 15.8 µM
OVCAR-8 ovarian
  TGI: 6.8 µM
RPMI-8226 leukemia
  TGI: 23.9 µM
IGROV1 ovarian
  TGI: 17.5 µM

## CC(C)=CCC/C(C)=C/[C@H]1OC(=O)CC12C[C@H](O)C=CC2=O (some centres not stated)
HL-60(TB) leukemia
  GI50: 0.323 µM
  TGI: 1.11 µM
BT-549 breast
  GI50: 0.802 µM
  TGI: 3.17 µM
HS 578T breast
  GI50: 1.81 µM
  TGI: 5.02 µM
CAKI-1 renal
  GI50: 0.827 µM
  TGI: 2.3 µM
HCT-116 colon
  GI50: 0.323 µM
  TGI: 1.21 µM
U251 CNS
  GI50: 0.752 µM
  TGI: 2.03 µM
OVCAR-5 ovarian
  GI50: 1.14 µM
  TGI: 2.54 µM
MDA-MB-435
  GI50: 0.458 µM
  TGI: 1.64 µM
HT29 colon
  GI50: 0.469 µM
SF-295 CNS
  GI50: 1.98 µM
  TGI: 4.69 µM
A498 renal
  GI50: 1.47 µM
  TGI: 3.09 µM
A549 NSCLC
  GI50: 2.08 µM
  TGI: 15.8 µM
CCRF-CEM leukemia
  GI50: 0.171 µM
  TGI: 0.521 µM
OVCAR-3 ovarian
  GI50: 0.455 µM
  TGI: 0.848 µM
T-47D breast
  GI50: 0.194 µM
  TGI: 0.692 µM
KM12 colon
  GI50: 0.777 µM
  TGI: 2.67 µM
M14 melanoma
  GI50: 0.32 µM
  TGI: 0.833 µM
DU-145 prostate
  GI50: 0.529 µM
  TGI: 2.18 µM
MDA-MB-231 breast
  GI50: 1.55 µM
  TGI: 3.29 µM
SW-620 colon
  GI50: 0.446 µM
  TGI: > 100 µM
SK-MEL-2 melanoma
  GI50: 1.74 µM
  TGI: > 45.1 µM
786-0 renal
  GI50: 0.727 µM
  TGI: 1.93 µM
HOP-62 NSCLC
  GI50: 0.856 µM
  TGI: 2.43 µM
UACC-62 melanoma
  GI50: 1.34 µM
  TGI: 2.68 µM
SN12C renal
  GI50: 0.529 µM
  TGI: 2 µM
HCC-2998 colon
  GI50: 0.221 µM
  TGI: 0.448 µM
UACC-257 melanoma
  GI50: 1.2 µM
  TGI: 2.82 µM
SNB-19 CNS
  GI50: 1.36 µM
  TGI: 2.64 µM
SR leukemia
  GI50: 0.383 µM
  TGI: > 100 µM
K-562 leukemia
  GI50: 0.363 µM
  TGI: > 100 µM
NCI-H522 lung
  GI50: 1.19 µM
COLO 205 colon
  GI50: 1.1 µM
  TGI: 3.72 µM
MCF7 breast
  GI50: 0.421 µM
  TGI: 1.29 µM
SNB-75 CNS
  GI50: 1.64 µM
  TGI: 4.2 µM
EKVX NSCLC
  GI50: 2.21 µM
  TGI: 5.24 µM
NCI/ADR-RES ovarian
  GI50: 0.553 µM
  TGI: 2.47 µM
SK-MEL-5 melanoma
  GI50: 1.35 µM
  TGI: 3.17 µM
TK-10 renal
  GI50: 1.31 µM
  TGI: 2.93 µM
SK-MEL-28 melanoma
  GI50: 2.23 µM
  TGI: 5.09 µM
SK-OV-3 ovarian
  GI50: 1.44 µM
  TGI: 3.19 µM
NCI-H23 lung
  GI50: 0.308 µM
  TGI: 1.04 µM
HCT-15 colon
  GI50: 0.509 µM
  TGI: > 100 µM
NCI-H460 lung
  GI50: 0.692 µM
  TGI: 2.21 µM
SF-268 CNS
  GI50: 0.922 µM
  TGI: 2.65 µM
HOP-92 NSCLC
  GI50: 1.21 µM
  TGI: 3.06 µM
UO-31 renal
  GI50: 1.96 µM
SF-539 CNS
  GI50: 0.421 µM
  TGI: 1.26 µM
OVCAR-8 ovarian
  GI50: 0.791 µM
PC-3 prostate
  GI50: 0.384 µM
  TGI: 1.42 µM
RPMI-8226 leukemia
  GI50: 0.235 µM
  TGI: 0.594 µM
IGROV1 ovarian
  GI50: 1.65 µM
